Source: ChEMBL document CHEMBL1201862, “PubChem BioAssay data set” (2004)
The source made the active and inactive calls.

Legend:
Cytochrome P450 1A2 = target: T1, Cytochrome P450 1A2 (Homo sapiens, UniProt P05177);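 further: PubChem cytochrome P450 panel assay, CYP1A2 panel member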
T1 sequence (P05177 whole entry): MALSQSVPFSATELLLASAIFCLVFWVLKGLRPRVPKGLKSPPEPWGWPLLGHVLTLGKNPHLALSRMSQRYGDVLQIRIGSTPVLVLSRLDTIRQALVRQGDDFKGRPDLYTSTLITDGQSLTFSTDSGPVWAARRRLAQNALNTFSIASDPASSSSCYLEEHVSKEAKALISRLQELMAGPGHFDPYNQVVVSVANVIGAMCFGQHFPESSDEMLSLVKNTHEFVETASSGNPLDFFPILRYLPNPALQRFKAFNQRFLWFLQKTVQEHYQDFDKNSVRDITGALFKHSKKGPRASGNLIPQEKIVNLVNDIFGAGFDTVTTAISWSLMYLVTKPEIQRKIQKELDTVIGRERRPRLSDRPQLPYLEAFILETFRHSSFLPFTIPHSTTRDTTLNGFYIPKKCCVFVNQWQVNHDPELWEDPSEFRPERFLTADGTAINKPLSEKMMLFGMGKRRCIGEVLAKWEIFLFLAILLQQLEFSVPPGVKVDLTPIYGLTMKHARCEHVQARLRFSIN

[1] = CRF-BP/CRF-R2 complex antagonists, dose response, cell-based, uHTS hits, 384-well (AID 651639); assay type: functional, Homo sapiens; settings: read-out: IC50_Mean
Cytochrome P450 3A4 [2] = target: T2, Cytochrome P450 3A4 (Homo sapiens, UniProt P08684)
Cytochrome P450 2C9 = Cytochrome P450 2C9 (Homo sapiens, UniProt P11712)
[3] = target: T3, Corticotropin-releasing factor receptor 2/Corticotropin-releasing factor-binding protein (Homo sapiens, UniProt P24387+Q13324); test: Dose Response confirmation of uHTS hits for small molecule antagonists of the CRF-binding protein and CRF-R2 receptor complex.; assay type: functional; settings: read-out: IC50_Mean
T3 sequence (Q13324 whole entry): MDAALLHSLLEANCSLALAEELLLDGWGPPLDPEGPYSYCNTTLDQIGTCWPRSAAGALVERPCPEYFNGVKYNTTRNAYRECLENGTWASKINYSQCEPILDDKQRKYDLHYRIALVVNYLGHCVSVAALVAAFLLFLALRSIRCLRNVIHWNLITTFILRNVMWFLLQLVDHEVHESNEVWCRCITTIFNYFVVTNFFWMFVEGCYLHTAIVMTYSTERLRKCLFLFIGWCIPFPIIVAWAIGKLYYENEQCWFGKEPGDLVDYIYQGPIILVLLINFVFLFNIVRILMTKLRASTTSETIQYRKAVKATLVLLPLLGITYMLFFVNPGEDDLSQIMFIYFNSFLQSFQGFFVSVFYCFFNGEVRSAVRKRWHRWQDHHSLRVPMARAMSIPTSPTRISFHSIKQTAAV
T3 sequence (P24387 whole entry): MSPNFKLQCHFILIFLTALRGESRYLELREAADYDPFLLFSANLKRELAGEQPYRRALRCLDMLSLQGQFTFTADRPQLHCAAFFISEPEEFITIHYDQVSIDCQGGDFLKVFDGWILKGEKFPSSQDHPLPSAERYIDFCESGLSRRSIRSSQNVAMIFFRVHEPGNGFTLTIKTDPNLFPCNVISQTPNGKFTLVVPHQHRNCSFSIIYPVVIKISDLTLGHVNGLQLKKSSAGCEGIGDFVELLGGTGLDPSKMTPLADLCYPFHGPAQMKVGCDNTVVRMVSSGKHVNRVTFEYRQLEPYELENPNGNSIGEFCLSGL

[4] = target: T3, Corticotropin-releasing factor receptor 2/Corticotropin-releasing factor-binding protein; test: activators of CRF receptor 2 with binding protein – uHTS hits, confirmation (AID 602473); assay type: functional; settings: read-out: EC50_Mean
[5] = target: T4, Rac GTPase-activating protein 1 (Homo sapiens, UniProt Q9H0H5); test: MgcRacGAP GTPase-activating activity inhibitors, confirmation, biochemical, ADP Hunter fluorescence, primary and confirmatory (AID 624330); assay type: functional
T4 sequence (Q9H0H5 whole entry): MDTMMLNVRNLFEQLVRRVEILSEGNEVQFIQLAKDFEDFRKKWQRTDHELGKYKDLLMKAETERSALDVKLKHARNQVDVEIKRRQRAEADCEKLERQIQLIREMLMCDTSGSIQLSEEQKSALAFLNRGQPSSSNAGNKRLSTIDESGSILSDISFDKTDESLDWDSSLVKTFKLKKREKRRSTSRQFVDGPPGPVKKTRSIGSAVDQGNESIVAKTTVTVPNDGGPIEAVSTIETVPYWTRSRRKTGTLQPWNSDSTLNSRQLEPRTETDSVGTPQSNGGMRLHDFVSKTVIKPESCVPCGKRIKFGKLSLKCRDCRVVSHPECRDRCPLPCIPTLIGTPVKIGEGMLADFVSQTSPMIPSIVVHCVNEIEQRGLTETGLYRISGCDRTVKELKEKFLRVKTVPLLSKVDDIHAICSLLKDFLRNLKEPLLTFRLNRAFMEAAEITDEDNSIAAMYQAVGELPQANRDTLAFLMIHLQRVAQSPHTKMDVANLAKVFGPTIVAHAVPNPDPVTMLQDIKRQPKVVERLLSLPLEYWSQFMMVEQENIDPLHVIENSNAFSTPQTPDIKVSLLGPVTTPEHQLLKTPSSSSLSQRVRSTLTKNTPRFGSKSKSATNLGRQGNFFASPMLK

Cytochrome P450 3A4 [6] = target: T2, Cytochrome P450 3A4; settings: Potency
Nonstructural protein 1 = Nonstructural protein 1 (Influenza A virus, UniProt Q194T2); assay type: functional, Influenza A virus (A/California/07/2009(H1N1))
[7] = target: Voltage-gated inwardly rectifying potassium channel KCNH2 (Homo sapiens, UniProt Q12809); settings: Potency;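 further: confirmatory quantitative high-throughput screen measuring inhibition of hERG channel activity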
[8] = target: T5, Zinc finger protein mex-5 (Caenorhabditis elegans, UniProt Q9XUB2); test: MEX-5/TCR-2 RNA interaction inhibitors, dose response, biochemical, C. elegans, fluorescence polarization (AID 1960)
T5 sequence (Q9XUB2 whole entry): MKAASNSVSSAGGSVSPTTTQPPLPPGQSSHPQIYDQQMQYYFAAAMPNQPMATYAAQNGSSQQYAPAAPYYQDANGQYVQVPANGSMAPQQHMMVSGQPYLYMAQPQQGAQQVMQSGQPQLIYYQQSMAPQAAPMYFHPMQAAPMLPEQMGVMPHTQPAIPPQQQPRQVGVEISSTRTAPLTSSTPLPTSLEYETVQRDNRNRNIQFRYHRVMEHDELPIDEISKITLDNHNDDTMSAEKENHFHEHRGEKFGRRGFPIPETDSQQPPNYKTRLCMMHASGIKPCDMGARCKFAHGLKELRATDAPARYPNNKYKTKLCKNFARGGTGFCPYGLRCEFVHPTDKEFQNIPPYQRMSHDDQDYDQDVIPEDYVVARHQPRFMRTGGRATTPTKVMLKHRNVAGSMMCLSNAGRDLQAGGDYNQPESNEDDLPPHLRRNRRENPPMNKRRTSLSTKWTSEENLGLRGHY

[9] = target: T6, Endoribonuclease toxin MazF (Escherichia coli K-12, UniProt P0AE70); test: fluorescent RNA oligo signal without MazF, dose response, counter-screen for MazEF activator project, biochemical, fluorescence, single-stranded RNase substrate (AID 588502); assay type: functional
T6 sequence (P0AE70 whole entry): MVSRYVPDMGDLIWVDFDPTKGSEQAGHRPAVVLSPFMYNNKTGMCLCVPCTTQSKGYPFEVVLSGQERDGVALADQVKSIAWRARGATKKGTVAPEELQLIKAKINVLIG

[10] = target: T6, Endoribonuclease toxin MazF; test: MazF toxin RNase activators, dose response, biochemical, fluorescence, single-stranded RNA substrate, uHTS hits (AID 588481); assay type: functional
[11] = target: T7, RNA-binding protein pos-1 (Caenorhabditis elegans, UniProt G5EF15); test: inhibitors of POS-1/mex-3 RNA binding, dose response, biochemical, fluorescence polarization (AID 1964);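 further: purified POS-1 fused to maltose binding protein made in E. coli; potency of compounds blocking POS-1 binding to fluorescent RNA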
T7 sequence (G5EF15 whole entry): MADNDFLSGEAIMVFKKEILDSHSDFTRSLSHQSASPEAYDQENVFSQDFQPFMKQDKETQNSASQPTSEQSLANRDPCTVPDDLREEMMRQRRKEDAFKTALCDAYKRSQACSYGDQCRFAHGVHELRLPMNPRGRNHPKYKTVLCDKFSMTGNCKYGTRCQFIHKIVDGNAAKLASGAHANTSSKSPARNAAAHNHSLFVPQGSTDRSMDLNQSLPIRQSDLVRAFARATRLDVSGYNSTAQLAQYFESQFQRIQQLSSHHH

[12] = target: Delta-type opioid receptor (Homo sapiens, UniProt P41143); test: Counterscreen for agonists of heterodimerization of the mu 1 (OPRM1) and delta 1 (OPRD1) opioid receptors: Luminescence-based cell-based high throughput dose response assay to identify agonists of OPRD1 homodimerization. [Related pubchem assays (depositor defined):AID504326, AID504355, AID504692, AID504904, AID504905]; assay type: functional
[13] = target: 5-hydroxytryptamine receptor 5A (Homo sapiens, UniProt P47898); test: Counterscreen for agonists of OPRM1-OPRD1 heterodimerization: luminescence-based cell-based high throughput dose response assay to identify agonists of 5-hydroxytryptamine (serotonin) 5A receptor (HTR5A). [Related pubchem assays (depositor defined):AID504326, AID504355, AID504692, AID504904, AID504905]; assay type: functional
Mu-type opioid receptor = Mu-type opioid receptor (Homo sapiens, UniProt P35372); test: Counterscreen for agonists of heterodimerization of the mu 1 (OPRM1) and delta 1 (OPRD1) opioid receptors: Luminescence-based cell-based high throughput dose response assay to identify agonists of OPRM1 homodimerization.; assay type: functional;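 further: U2OS cells expressing OPRM1 and beta-arrestin as split beta-galactosidase partners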
Mu-type opioid receptor, sequence (P35372 whole entry): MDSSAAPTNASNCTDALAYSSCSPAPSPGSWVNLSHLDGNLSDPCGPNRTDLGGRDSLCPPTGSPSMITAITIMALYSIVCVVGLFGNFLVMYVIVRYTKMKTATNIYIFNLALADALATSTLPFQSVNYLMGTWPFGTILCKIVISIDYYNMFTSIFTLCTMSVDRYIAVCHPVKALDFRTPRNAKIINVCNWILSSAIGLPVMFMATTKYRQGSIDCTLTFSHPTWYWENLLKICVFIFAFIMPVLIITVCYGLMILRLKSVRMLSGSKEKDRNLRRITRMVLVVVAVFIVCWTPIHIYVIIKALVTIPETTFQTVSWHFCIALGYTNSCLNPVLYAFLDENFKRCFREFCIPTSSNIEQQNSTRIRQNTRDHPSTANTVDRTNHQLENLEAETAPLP

Voltage-gated inwardly rectifying potassium channel KCNH2, sequence (Q12809 whole entry): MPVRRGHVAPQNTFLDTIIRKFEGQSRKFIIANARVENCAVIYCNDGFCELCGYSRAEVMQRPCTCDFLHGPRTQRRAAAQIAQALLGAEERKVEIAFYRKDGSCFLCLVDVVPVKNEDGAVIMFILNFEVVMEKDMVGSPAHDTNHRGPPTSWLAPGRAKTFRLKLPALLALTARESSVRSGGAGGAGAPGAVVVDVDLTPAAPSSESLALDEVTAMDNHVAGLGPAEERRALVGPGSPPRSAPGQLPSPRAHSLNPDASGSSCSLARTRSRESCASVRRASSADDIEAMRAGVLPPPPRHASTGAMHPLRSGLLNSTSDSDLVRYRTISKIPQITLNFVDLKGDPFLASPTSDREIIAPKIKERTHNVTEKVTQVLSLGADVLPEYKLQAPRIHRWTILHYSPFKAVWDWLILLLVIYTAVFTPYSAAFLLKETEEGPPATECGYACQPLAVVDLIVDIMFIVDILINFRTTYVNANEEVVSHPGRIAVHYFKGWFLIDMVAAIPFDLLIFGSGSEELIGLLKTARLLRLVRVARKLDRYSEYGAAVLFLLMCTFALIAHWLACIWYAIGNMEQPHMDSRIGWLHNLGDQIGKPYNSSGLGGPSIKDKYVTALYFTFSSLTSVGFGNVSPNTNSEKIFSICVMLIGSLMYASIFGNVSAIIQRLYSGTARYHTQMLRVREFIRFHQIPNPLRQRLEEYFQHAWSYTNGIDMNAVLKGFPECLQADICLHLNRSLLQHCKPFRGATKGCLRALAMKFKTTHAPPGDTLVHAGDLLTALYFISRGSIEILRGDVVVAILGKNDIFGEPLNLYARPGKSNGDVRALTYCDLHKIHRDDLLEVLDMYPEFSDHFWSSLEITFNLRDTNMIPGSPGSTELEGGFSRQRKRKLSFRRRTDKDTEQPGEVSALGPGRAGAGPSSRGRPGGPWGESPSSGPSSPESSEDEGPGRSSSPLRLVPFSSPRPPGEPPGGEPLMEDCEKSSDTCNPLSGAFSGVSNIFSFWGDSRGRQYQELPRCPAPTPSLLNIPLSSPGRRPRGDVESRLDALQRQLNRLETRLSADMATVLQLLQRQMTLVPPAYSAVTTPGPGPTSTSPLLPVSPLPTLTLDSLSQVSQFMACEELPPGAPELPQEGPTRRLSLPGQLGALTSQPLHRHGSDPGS
T2 sequence (P08684 whole entry): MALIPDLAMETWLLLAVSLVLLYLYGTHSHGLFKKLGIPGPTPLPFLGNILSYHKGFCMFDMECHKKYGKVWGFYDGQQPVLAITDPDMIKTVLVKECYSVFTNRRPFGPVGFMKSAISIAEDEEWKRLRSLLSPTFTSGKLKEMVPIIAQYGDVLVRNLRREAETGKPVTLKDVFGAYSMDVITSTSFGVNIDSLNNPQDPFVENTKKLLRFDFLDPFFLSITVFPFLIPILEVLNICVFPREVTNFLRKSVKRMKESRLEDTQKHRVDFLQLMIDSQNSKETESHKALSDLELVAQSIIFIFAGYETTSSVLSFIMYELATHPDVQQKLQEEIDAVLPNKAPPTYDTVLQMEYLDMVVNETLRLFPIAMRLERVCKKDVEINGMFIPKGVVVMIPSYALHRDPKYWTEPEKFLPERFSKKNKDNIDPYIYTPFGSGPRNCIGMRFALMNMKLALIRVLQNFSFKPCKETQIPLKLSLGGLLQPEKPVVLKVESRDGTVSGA
Delta-type opioid receptor, sequence (P41143 whole entry): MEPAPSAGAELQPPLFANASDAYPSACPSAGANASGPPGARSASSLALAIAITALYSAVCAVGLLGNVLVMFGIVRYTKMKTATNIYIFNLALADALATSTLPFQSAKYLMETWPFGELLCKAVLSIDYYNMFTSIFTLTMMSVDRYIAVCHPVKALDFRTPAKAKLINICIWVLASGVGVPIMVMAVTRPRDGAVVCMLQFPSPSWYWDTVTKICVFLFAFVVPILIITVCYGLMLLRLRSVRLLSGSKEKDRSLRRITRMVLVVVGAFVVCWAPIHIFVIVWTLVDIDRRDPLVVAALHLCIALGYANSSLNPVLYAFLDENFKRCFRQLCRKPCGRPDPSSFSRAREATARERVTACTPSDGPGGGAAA
5-hydroxytryptamine receptor 5A, sequence (P47898 whole entry): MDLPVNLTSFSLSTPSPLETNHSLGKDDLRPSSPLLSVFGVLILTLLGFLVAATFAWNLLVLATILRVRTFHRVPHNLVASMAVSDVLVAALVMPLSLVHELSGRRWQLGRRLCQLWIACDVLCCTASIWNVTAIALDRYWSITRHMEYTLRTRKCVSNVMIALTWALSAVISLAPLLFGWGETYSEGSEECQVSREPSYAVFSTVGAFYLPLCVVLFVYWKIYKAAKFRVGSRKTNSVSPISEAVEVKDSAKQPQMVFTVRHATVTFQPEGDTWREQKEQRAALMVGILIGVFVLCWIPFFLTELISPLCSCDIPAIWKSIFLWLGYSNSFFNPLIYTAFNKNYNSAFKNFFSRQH
Nonstructural protein 1, sequence (Q194T2 whole entry): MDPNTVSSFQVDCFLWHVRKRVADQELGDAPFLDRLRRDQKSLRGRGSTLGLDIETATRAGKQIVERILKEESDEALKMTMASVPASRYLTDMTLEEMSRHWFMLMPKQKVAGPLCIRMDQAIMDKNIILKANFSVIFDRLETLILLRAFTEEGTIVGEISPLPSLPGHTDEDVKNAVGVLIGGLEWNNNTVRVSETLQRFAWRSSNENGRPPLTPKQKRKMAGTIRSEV
Cytochrome P450 2C9, sequence (P11712 whole entry): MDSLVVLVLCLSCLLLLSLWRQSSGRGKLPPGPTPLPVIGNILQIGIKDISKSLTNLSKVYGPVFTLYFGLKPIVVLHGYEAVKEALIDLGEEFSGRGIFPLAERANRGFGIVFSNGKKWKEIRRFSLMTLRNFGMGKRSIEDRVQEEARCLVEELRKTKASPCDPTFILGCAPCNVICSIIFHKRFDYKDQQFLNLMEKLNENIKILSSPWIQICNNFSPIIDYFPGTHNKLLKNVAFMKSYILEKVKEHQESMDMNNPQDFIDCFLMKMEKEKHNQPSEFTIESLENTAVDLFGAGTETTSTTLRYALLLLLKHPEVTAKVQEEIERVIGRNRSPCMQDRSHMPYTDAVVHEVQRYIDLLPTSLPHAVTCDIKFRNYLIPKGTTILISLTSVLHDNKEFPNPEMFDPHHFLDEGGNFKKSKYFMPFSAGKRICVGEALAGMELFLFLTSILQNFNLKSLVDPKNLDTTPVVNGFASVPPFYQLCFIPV

CCOc1cc(C)ccc1OCc1nnc(SCC(=O)c2cccc([N+](=O)[O-])c2)n1C
AC50 (Cytochrome P450 1A2): 15.8 µM (inconclusive) | IC50 [1]: 2.11 µM (active) | AC50 (Cytochrome P450 3A4 [2]): 1.41 µM (inconclusive) | AC50 (Cytochrome P450 2C9): inconclusive | IC50 [3]: 2.52 µM (active) | EC50 [4]: > 53 µM (inactive)

CN(C)c1ccc(Cc2ccc(N(C)C)cc2)cc1
IC50 [5]: 73.2 µM (active) | AC50 (Cytochrome P450 3A4 [6]): 12.6 µM (inconclusive) | IC50 (Nonstructural protein 1): 36.6 µM (active) | AC50 [7]: 70.8 µM (inconclusive)

Cn1nc(C(F)(F)F)cc1-c1ccc(/C=C(\C#N)C(=O)c2ccccc2)s1
EC50 [8]: 11.2 µM (inconclusive) | EC50 [9]: > 99 µM (inactive) | EC50 [10]: > 99 µM (inactive) | EC50 [11]: 21.1 µM (inconclusive)

CN(C(=O)Cc1ccc(Cl)c(Cl)c1)C(CN1CCCC1)c1cccc(OCC(=O)O)c1 (stereo not drawn)
EC50 [12]: 17.2 µM (inactive) | EC50 [13]: > 92.5 µM (inactive) | AC50 [7]: 35.5 µM (inconclusive) | EC50 (Mu-type opioid receptor): > 92.5 µM (inactive)
